Source: the supplement of paper PMC8967900

test system: MOLT-14; assay: selective drug sensitivity score (sDSS, relative to normal bone marrow) (sDSS (score)); higher = more potent and effective on the cell line relative to normal bone marrow cells; details: 72 h
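Also: ALL cell lines in 384-well plates, five doses spanning 10,000-fold, each plate scaled between vehicle and 100 µmol/L benzalkonium chloride controls, sDSS an adapted area-under-curve metric.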

Structure (SMILES) | selective drug sensitivity score
Cc1ccc(C(=O)Nc2cccc(C(F)(F)F)c2)cc1Nc1nc(-c2cccnc2)nc2c1cnn2C [NVP-BHG712] (top concentration 10000 nM) | 2.28
COC[C@H](NC(=O)c1cnc(C)s1)C(=O)N[C@@H](COC)C(=O)N[C@@H](Cc1ccccc1)C(=O)[C@@]1(C)CO1 [Oprozomib] (top concentration 2500 nM) | 2.8
Cc1ccc(C(=O)N(CCCN)[C@@H](c2oc3cc(Cl)ccc3c(=O)c2Cc2ccccc2)C(C)C)cc1 (top concentration 100 nM) | 3.76
CCn1c(C(=O)N(C2CC2)C2CC2)cc2c3c(ncn3C)c(Nc3cc(C)n(C)n3)nc21 (top concentration 10000 nM) | -4.36
Nc1nc(Cl)nc2c1ncn2[C@@H]1O[C@H](CO)[C@@H](O)[C@@H]1F [Clofarabine] (top concentration 10000 nM) | 11.4
Cc1ccc(C(=O)Nc2ccc(Oc3cc4cnn(C)c4cc3-c3cn[nH]c3)c(F)c2)c(=O)n1-c1ccc(F)cc1 [Merestinib] (top concentration 1000 nM) | -0.62
Nc1ncn([C@@H]2O[C@H](CO)[C@@H](O)[C@H]2O)c(=O)n1 [Azacitidine] (top concentration 10000 nM) | 9.04
CC(C)c1cc(-c2n[nH]c(=O)n2-c2ccc3c(ccn3C)c2)c(O)cc1O [Ganetespib] (top concentration 1000 nM) | 1.74
C[C@]1(c2nc3c(C(N)=O)cccc3[nH]2)CCCN1 [Veliparib] (top concentration 10000 nM) | 0.22

test system: MOLT-16; assay: as above; details: 72 h

Structure (SMILES) | selective drug sensitivity score
C/C=C1\NC(=O)[C@H]2CSSCC/C=C/[C@H](CC(=O)N[C@H](C(C)C)C(=O)N2)OC(=O)[C@H](C(C)C)NC1=O [Romidepsin] (top concentration 1000 nM) | 2.76
CN(C)CCOc1ccc(/C(=C(/CCCl)c2ccccc2)c2ccccc2)cc1 [Toremifene] (top concentration 10000 nM) | 3.38
CCCCc1nc2cc(/C=C/C(=O)NO)ccc2n1CCN(CC)CC [Pracinostat] (top concentration 10000 nM) | 6.28
Cn1ncc(Cl)c1-c1cc(C(=O)N[C@H](CN)Cc2cccc(F)c2)sc1Cl [Afuresertib] (top concentration 1000 nM) | 10.4
Cc1cc(-c2nc(-c3ccc(OC(F)(F)F)cc3)no2)nn1Cc1ccnc(N2CCN(C3CC3)CC2)c1 [BAY_87-2243] (top concentration 1000 nM) | 22.9
CNc1nc(-c2ccc3c(N)n[nH]c3c2)cc(N2C[C@@H](C(=O)NC3CCCCC3)CC[C@H]2C)n1 (top concentration 10000 nM) | -0.14
CN1CC[C@H](c2c(O)cc(O)c3c(=O)cc(-c4ccccc4Cl)oc23)[C@H](O)C1 [Alvocidib] (top concentration 10000 nM) | 0.7
Cc1cc2c(C(C)C)c(O)c(O)c(C=O)c2c(O)c1-c1c(C)cc2c(C(C)C)c(O)c(O)c(C=O)c2c1O [AT-101] (top concentration 100000 nM) | 5.88
Cc1ccc(C(=O)Nc2cccc(C(F)(F)F)c2)cc1Nc1nc(-c2cccnc2)nc2c1cnn2C [NVP-BHG712] (top concentration 10000 nM) | 3.68
COC[C@H](NC(=O)c1cnc(C)s1)C(=O)N[C@@H](COC)C(=O)N[C@@H](Cc1ccccc1)C(=O)[C@@]1(C)CO1 [Oprozomib] (top concentration 2500 nM) | 4.7
Cc1ccc(C(=O)N(CCCN)[C@@H](c2oc3cc(Cl)ccc3c(=O)c2Cc2ccccc2)C(C)C)cc1 (top concentration 100 nM) | 7.46
CCn1c(C(=O)N(C2CC2)C2CC2)cc2c3c(ncn3C)c(Nc3cc(C)n(C)n3)nc21 (top concentration 10000 nM) | -4.36
Nc1nc(Cl)nc2c1ncn2[C@@H]1O[C@H](CO)[C@@H](O)[C@@H]1F [Clofarabine] (top concentration 10000 nM) | 4.4
Cc1ccc(C(=O)Nc2ccc(Oc3cc4cnn(C)c4cc3-c3cn[nH]c3)c(F)c2)c(=O)n1-c1ccc(F)cc1 [Merestinib] (top concentration 1000 nM) | -0.62
Nc1ncn([C@@H]2O[C@H](CO)[C@@H](O)[C@H]2O)c(=O)n1 [Azacitidine] (top concentration 10000 nM) | 7.14
CC(C)c1cc(-c2n[nH]c(=O)n2-c2ccc3c(ccn3C)c2)c(O)cc1O [Ganetespib] (top concentration 1000 nM) | 4.74
C[C@]1(c2nc3c(C(N)=O)cccc3[nH]2)CCCN1 [Veliparib] (top concentration 10000 nM) | 0.32

test system: NALM-6; assay: as above; details: 72 h

Structure (SMILES) | selective drug sensitivity score
C/C=C1\NC(=O)[C@H]2CSSCC/C=C/[C@H](CC(=O)N[C@H](C(C)C)C(=O)N2)OC(=O)[C@H](C(C)C)NC1=O [Romidepsin] (top concentration 1000 nM) | 2.66
CN(C)CCOc1ccc(/C(=C(/CCCl)c2ccccc2)c2ccccc2)cc1 [Toremifene] (top concentration 10000 nM) | 1.68
CCCCc1nc2cc(/C=C/C(=O)NO)ccc2n1CCN(CC)CC [Pracinostat] (top concentration 10000 nM) | 2.78
Cn1ncc(Cl)c1-c1cc(C(=O)N[C@H](CN)Cc2cccc(F)c2)sc1Cl [Afuresertib] (top concentration 1000 nM) | 4.66
Cc1cc(-c2nc(-c3ccc(OC(F)(F)F)cc3)no2)nn1Cc1ccnc(N2CCN(C3CC3)CC2)c1 [BAY_87-2243] (top concentration 1000 nM) | 10
CNc1nc(-c2ccc3c(N)n[nH]c3c2)cc(N2C[C@@H](C(=O)NC3CCCCC3)CC[C@H]2C)n1 (top concentration 10000 nM) | 2.96
CN1CC[C@H](c2c(O)cc(O)c3c(=O)cc(-c4ccccc4Cl)oc23)[C@H](O)C1 [Alvocidib] (top concentration 10000 nM) | -1.2
Cc1cc2c(C(C)C)c(O)c(O)c(C=O)c2c(O)c1-c1c(C)cc2c(C(C)C)c(O)c(O)c(C=O)c2c1O [AT-101] (top concentration 100000 nM) | 6.38
Cc1ccc(C(=O)Nc2cccc(C(F)(F)F)c2)cc1Nc1nc(-c2cccnc2)nc2c1cnn2C [NVP-BHG712] (top concentration 10000 nM) | -2.32
COC[C@H](NC(=O)c1cnc(C)s1)C(=O)N[C@@H](COC)C(=O)N[C@@H](Cc1ccccc1)C(=O)[C@@]1(C)CO1 [Oprozomib] (top concentration 2500 nM) | -0.4
Cc1ccc(C(=O)N(CCCN)[C@@H](c2oc3cc(Cl)ccc3c(=O)c2Cc2ccccc2)C(C)C)cc1 (top concentration 100 nM) | 3.56
CCn1c(C(=O)N(C2CC2)C2CC2)cc2c3c(ncn3C)c(Nc3cc(C)n(C)n3)nc21 (top concentration 10000 nM) | -4.36
Nc1nc(Cl)nc2c1ncn2[C@@H]1O[C@H](CO)[C@@H](O)[C@@H]1F [Clofarabine] (top concentration 10000 nM) | 2.1
Cc1ccc(C(=O)Nc2ccc(Oc3cc4cnn(C)c4cc3-c3cn[nH]c3)c(F)c2)c(=O)n1-c1ccc(F)cc1 [Merestinib] (top concentration 1000 nM) | -0.62
Nc1ncn([C@@H]2O[C@H](CO)[C@@H](O)[C@H]2O)c(=O)n1 [Azacitidine] (top concentration 10000 nM) | 3.34
CC(C)c1cc(-c2n[nH]c(=O)n2-c2ccc3c(ccn3C)c2)c(O)cc1O [Ganetespib] (top concentration 1000 nM) | 2.34
C[C@]1(c2nc3c(C(N)=O)cccc3[nH]2)CCCN1 [Veliparib] (top concentration 10000 nM) | -2.48
